From PubChem BioAssay AID328 (DTP/NCI, 2004)
“And” between values parts separate entries of the source, which are not always exact repeats. Equal entries are not always repeated. Toxic doses and inconclusive results are not listed. Rule for the calls: active = survival T/C of 150% or more; inactive = T/C below 125% in these data. Residues, ends and D or L forms follow the SMILES beside them. *: point of attachment. Bn = c1ccc(C*)cc1; For = O=C*

System: BDF1 mice, P388 leukemia ip, median survival T/C
Assay: NCI In Vivo Anticancer Drug Screen. Data for tumor model P388 Leukemia (intraperitoneal) in B6D2F1 (BDF1) mice
Conditions: endpoint: median survival time, higher = longer survival
How it was run: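 Compound-treated tumour-bearing mice were compared with vehicle-treated controls. Survival was recorded, and the value is the treated-group measurement divided by the control-group measurement (T/C).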

[1] = dose: 50.0 mg/kg/injection, schedule: Q01DX009 (ip), vehicle: saline with Tween-80
[2] = dose: 100.0 mg/kg/injection, schedule: Q01DX009 (ip), vehicle: saline with Tween-80
[3] = dose: 100.0 mg/kg/injection, schedule: Q04DX003 (ip), vehicle: saline with Tween-80
[4] = dose: 200.0 mg/kg/injection, schedule: Q04DX003 (ip), vehicle: saline with Tween-80
[5] = dose: 400.0 mg/kg/injection, schedule: Q04DX003 (ip), vehicle: saline with Tween-80
[6] = dose: 200.0 mg/kg/injection, schedule: Q01DX009 (ip), vehicle: saline with Tween-80
[7] = dose: 400.0 mg/kg/injection, schedule: Q01DX009 (ip), vehicle: saline with Tween-80

Measured: T/C

CC1CCC2CON(C(C)(C)C)C2C1 (centres undefined)
inactive: [1] 100 % of control | [2] 100 % of control

COc1ccc(/C(C#N)=C2C=C(Cl)/C(=N/O)C=C/2Cl)cc1
inactive: dose: 100.0 mg/kg/injection, schedule: Q01DX001 (ip), vehicle: Klucel (hydroxypropylcellulose) (HPC) 90 % of control | dose: 100.0 mg/kg/injection, schedule: Q01DX009 (ip), vehicle: Klucel (hydroxypropylcellulose) (HPC) 95 % of control | dose: 200.0 mg/kg/injection, schedule: Q01DX001 (ip), vehicle: Klucel (hydroxypropylcellulose) (HPC) 90 % of control | dose: 200.0 mg/kg/injection, schedule: Q01DX009 (ip), vehicle: Klucel (hydroxypropylcellulose) (HPC) 87 % of control | dose: 400.0 mg/kg/injection, schedule: Q01DX001 (ip), vehicle: Klucel (hydroxypropylcellulose) (HPC) 86 % of control | dose: 400.0 mg/kg/injection, schedule: Q01DX009 (ip), vehicle: Klucel (hydroxypropylcellulose) (HPC) 104 % of control

CC[n+]1c(-c2ccccc2)c2cc(N)ccc2c2ccc(N)cc21 (tested in a mixture with another compound)
inactive: dose: 25.0 mg/kg/injection, schedule: Q01DX009 (ip), vehicle: other 112 % of control | dose: 50.0 mg/kg/injection, schedule: Q01DX009 (ip), vehicle: other 112 % of control

CCCCCCCCCCCCCCCCCCNC(=O)Nc1ccc(CC)cc1
inactive: [3] 90 % of control | [4] 104 % of control | [5] 95 % of control

C#CC(=O)C1OC2OC(C)(C)OC2C2OC(C)(C)OC12 (centres undefined)
inactive: dose: 3.12 mg/kg/injection, schedule: Q01DX005 (ip), vehicle: saline with Tween-80 100 % of control | dose: 6.25 mg/kg/injection, schedule: Q01DX005 (ip), vehicle: saline with Tween-80 107 % of control | dose: 12.5 mg/kg/injection, schedule: Q01DX005 (ip), vehicle: saline with Tween-80 107 % of control

O=C1C(Cl)=C(N2CCOCC2)C(=O)c2ccccc21
inactive: dose: 6.25 mg/kg/injection, schedule: Q01DX009 (ip), vehicle: Klucel (hydroxypropylcellulose) (HPC) 118 % of control | dose: 12.5 mg/kg/injection, schedule: Q01DX009 (ip), vehicle: Klucel (hydroxypropylcellulose) (HPC) 108 % of control | dose: 25.0 mg/kg/injection, schedule: Q01DX009 (ip), vehicle: Klucel (hydroxypropylcellulose) (HPC) 114 % of control

CN(C)c1ccc(S(=O)(=O)c2ccc3nc(N)nc(N)c3c2)cc1
inactive: [1] 97 % of control | [2] 91 % of control | [6] 88 % of control

C=CS(=O)(=O)c1ccccc1
inactive: dose: 18.0 mg/kg/injection, schedule: Q01DX009 (ip), vehicle: saline with Tween-80 114 % of control | dose: 18.0 mg/kg/injection, schedule: Q04DX003 (ip), vehicle: saline with Tween-80 90 % of control | dose: 24.0 mg/kg/injection, schedule: Q01DX009 (ip), vehicle: saline with Tween-80 100 % of control | dose: 36.0 mg/kg/injection, schedule: Q01DX009 (ip), vehicle: saline with Tween-80 116 % of control | dose: 36.0 mg/kg/injection, schedule: Q04DX003 (ip), vehicle: saline with Tween-80 100 % of control | dose: 72.0 mg/kg/injection, schedule: Q01DX009 (ip), vehicle: saline with Tween-80 114 % of control | dose: 72.0 mg/kg/injection, schedule: Q04DX003 (ip), vehicle: saline with Tween-80 109 % of control

OCC(F)(F)C(F)(F)C(F)(F)F
inactive: [2] 100 % of control | [6] 104 % of control | [7] 109 % of control

CC(C)CC(NC(=O)C(Cc1ccc(OCc2ccccc2)cc1)NC=O)C(=O)O (centres undefined) (For-Tyr(Bn)-Leu-OH; configuration not given here)
inactive: [1] 110 % of control | [2] 95 % of control and 100 % of control (2×) | dose: 100.0 mg/kg/injection, schedule: Q01DX009 (ip), vehicle: sodium bicarbonate 90 % of control | [3] 105 % of control | [6] 86 % of control and 95 % of control and 110 % of control | dose: 200.0 mg/kg/injection, schedule: Q01DX009 (ip), vehicle: sodium bicarbonate 105 % of control | [4] 105 % of control | [7] 90 % of control | [5] 110 % of control

O=c1[nH]n(-c2ccccc2)c(=O)cc1Cl
inactive: [1] 95 % of control | [2] 87 % of control | [6] 90 % of control
